Results from patent US20240161653A1, “IN VITRO MODEL DEVICE FOR PLACENTAL BARRIER” (CFD Research Corporation, priority 2022, published 2024).
Counter-ions that a name gives are not always drawn.

Key:
[1] = tested on: placental barrier of the in vitro placenta device (coculture of Bewo trophoblasts and HUVEC); assay: Maternal-placental size exclusion permeability assay in the in vitro placenta device; assay type: in vitro ADME, human; details: injected into maternal vascular channel at 0.1 μL/min for 1 hour; PI = ratio of sum ROIs trophoblast to maternal vascular channel; FIG. 9B
Method: Again, devices can be placed in the incubator.
In another example, one embodiment of the present invention was used to evaluate maternal-placental size exclusion, where a fluorescein sodium salt (FSS) solution was injected into the maternal vascular channel at 0.1 μL/min for 1 hour. […] PI was expected to decrease as a function of compound molecular weight.

[2] = tested on: trophoblast channel cells; assay: Cytotoxicity by adenylate kinase release (luminescence), samples from trophoblast channel; assay type: cell-based; details: luminescence plate reader, FIG. 11
Method: Following exposure, FSS was injected into the maternal channel and permeability assayed. Permeability in the devices was 10-fold higher in trypan blue treated devices compared to controls. An additional assay was performed to determine cytotoxicity as it relates to the release of adenylate kinase. A positive control (100% death by lysis buffer) and a negative control (media only) were included for comparison. Samples were taken from the trophoblast channel and placed in a low volume, white walled […] plate for luminescence analysis using a plate reader. […] The increase in AK release in arbitrary luminescence units compares the toxic exposure of trypan blue to positive and negative controls.

[3] = tested on: intervillous space-trophoblast barrier; assay: Morphological effects of toxic exposure in the in vitro placenta device; assay type: cell-based; details: injected into maternal channel at 3 μL/min for 4 min, then incubated at 37° C. for 15 min; FIG. 10
Excerpt: In some embodiments, the in vitro placental model device can be used for studying toxicity of test agents to the placenta. Certain compounds not only induce fetal toxicity upon crossing the placental barrier, but also disrupt the barrier itself. The microfluidic placental barrier model can be used to study response to toxic exposure of test agents. The impact to barrier function can be assessed through permeability comparisons and toxicity (e.g., cytotoxicity, etc.) can be assessed off chip by various methods (e.g., cell lysate luminescence assay, genomic analysis, etc.).
For example, an in vitro placenta device was exposed to trypan blue by injection into the maternal channel at 3 μL/min for 4 min and then incubated at 37° C. for 15 min, similar to protocols in literature^7.8. […] White arrows show barrier degradation, and dark arrows show apoptosis following trypan blue exposure.

increase in average PI compared to 4 kD TRITC-dextran [1]	Structure (SMILES)	increase in adenylate kinase release [2]	morphological effects of exposure at the intervillous space-trophoblast barrier [3]
~2 fold	O=C1OC2(c3ccc(O)cc3Oc3cc(O)ccc32)c2ccccc21 [FSS, fluorescein sodium salt]		
	Cc1cc(-c2ccc(/N=N/c3c(S(=O)(=O)O)cc4cc(S(=O)(=O)O)cc(N)c4c3O)c(C)c2)ccc1/N=N/c1c(S(=O)(=O)O)cc2cc(S(=O)(=O)O)cc(N)c2c1O [trypan blue]	1.5 fold	evidence of barrier degradation (e.g., cell death and detachment) and apoptosis
